{"source": "paper PMC4822341", "about": "(Cell Discovery, 2015)", "key": {"RAW264.7 cells": {"tested_on": "RAW264.7 cells", "assay": "Gene expression (microarray and quantitative PCR) in LPS-stimulated RAW264.7 cells", "assay_type": "cell-based, mouse", "conditions": "RAW264.7, LPS, steroid 100 nM", "experimental": "Mouse macrophage RAW264.7 cells were grown in 6-well plates to reach 80% confluence. The cells were pretreated with different steroids at 100 nM 1 h before overnight induction of inflammation by 1 μg ml^–1 LPS. Total RNA was isolated using a Qiagen mini RNA extraction kit (Valencia, CA, USA). Complementary DNA was synthesized from total RNA with an Invitrogen Superscript cDNA synthesis kit (Carlsbad, CA, USA). Target genes were quantified with a Power SYBR Green Real-Time PCR kit (Carlsbad, CA, USA) (ABI) in a StepOnePlus real-time PCR instrument (Applied Biosystems, Carlsbad, CA, USA). In every case, GAPDH (glyceraldehyde-3-phosphate dehydrogenase) was used as an internal control and data were analyzed by the ΔΔCt method. The specificity of target primers was tested both in a dissociation (melting) curve (Supplementary Figure S4) and against a water control. Primer sequence information is included in Supplementary Figure S4.\nRAW264.7 cells were treated with designated steroids at 100 nM 1 h before overnight LPS stimulation of inflammation. Each treatment was duplicated. The following day, RNA samples were isolated using a Qiagen mini RNA extraction kit and applied to the Agilent Whole Mouse Genome 8x60K gene expression platform. Data were analyzed by the limma package in R program. Heat maps were generated by the HeatMap 2 package. Pathway analysis was done via DAVID Bioinformatics Resources 6.7 (NIAID) and Venn diagrams were generated by BioVenn."}, "[1]": {"assay": "Spleen size and weight (spleen atrophy)", "assay_type": "in vivo, DBA/1 mice", "conditions": "2 weeks", "experimental": "Figure 5 Examination of side effects of VSGC12 and FF at the effective dose. (a) Body weight of DBA/1 mice treated with the indicated daily dose of steroids for 2 weeks. Mice body weight was measured at day 0, 7 and 14. (b) Insulin-tolerance test of mice treated with the indicated daily doses of steroids for 7 days. Glucose level was measured at day 7 at various time points before and after insulin injection. Data were plotted as percent of the glucose level of time 0. (c) Plasma insulin levels of mice treated with the indicated daily doses of steroid for 7 days. (d) Spleen size and weight for mice treated with the indicated daily doses of steroid for 2 weeks. (e) Cortical bone thickness of femurs of mice treated with the indicated daily doses of steroid for 2 weeks. (f) Bone stiffness of femurs of mice treated with the indicated daily doses of steroid for 2 weeks. Mouse strain: DBA/1. Each treatment n=5, error bars indicate s.e.m., *P<0.05; **P<0.01; ***P<0.001."}, "OVA-induced asthma": {"tested_on": "OVA-induced asthma", "assay": "OVA-induced mouse asthma model", "assay_type": "in vivo, Balb/c mice", "conditions": "for % repression of AHR: ACH challenge 4 mg kg^-1", "experimental": "As described before, 7–9-week-old female Balb/c mice (Taconic) were sensitized on days 0, 7 and 14 by i.p. injection of 50 μg OVA/1 mg alum in a total of 200 μl saline. Control mice received an equal volume of alum only. Mice were lightly anesthetized by isoflurane inhalation and challenged with intranasal OVA (100 μg in 30 μl saline) or saline on days 21–23, and were i.p. injected with different steroids. Twenty-four hours after the last challenge and treatment, pulmonary resistance was measured in response to a range of concentrations of intravenous acetylcholine using the forced oscillation technique with the FlexiVent system (SCIREQ) as previously described. Serum samples were analyzed for OVA-specific IgE using an ELISA (BD Biosciences, clone R35-118). Total and differential cell counts were determined by hemocytometer and by light microscopic evaluation of more than 300 cells per slide as previously described. After lavage, lungs were inflated with 10% buffered formalin to 25 cm H2O and transferred to 10% buffered formalin. Sections (5 μm) were stained with H&E for semi-quantitative assessment of inflammation and PAS for evaluation of mucus production. To quantify inflammation, H&E-stained lung sections were de-identified for blinding and scored for peribronchial and perivascular inflammatory cell infiltration: grade 0, no infiltration; grade 1, <25% of examined area; grade 2, 25–50%; grade 3, 51–75%; and grade 4, >75%. To quantify goblet cell hyperplasia, PAS stained lung sections were de-identified for blinding and scored for the percentage of PAS positive cells among airway epithelial cells: grade 0: none; grade 1 <25% of airway epithelial cells; grade 2, 25–50%; grade 3, 51–75%; and grade 4, >75%."}, "[2]": {"assay": "Bone density (μCT) and biomechanics testing of femurs", "assay_type": "in vivo, DBA/1 mice", "conditions": "2 weeks; for cortical bone thickness of femurs: μCT", "experimental": "Femur bones were collected and scanned by μCT (Skyscan 1172 uCT) for quantification of trabecular and cortical bone parameters. The thresholds for μCT quantification of trabecular and cortical bone parameters were set at 80–100 and 100–110, respectively. μCT analyses of cortical bone parameters were performed on 100-μCT slices (1 mm total) from the middle shaft of femurs; trabecular parameters were assessed in 100-μCT slices (1 mm total) immediately below the distal growth plate of the femur. Following uCT scans, the femurs were individually tested on a TestResources 570 Force Transducer. Bones were thawed in PBS before being tested, to ensure no brittleness was due to freezing. […] Data points were collected at a frequency of 50 Hz and a deflection rate of 0.005 mm s^–1."}, "[3]": {"assay": "Insulin-tolerance test and plasma insulin level", "conditions": "7 days", "quoted_text": "DBA/1 mice (Taconic) were weighted just before the experiment. After 4 h fasting, mice were i.p. injected with 0.75 U kg^–1 of insulin (Huamlin R). Blood samples were taken from the tail at time 0 (before insulin injection), 15, 30, 45, 60, 90 and 120 min after injection. Plasma glucose levels were measured using an AlphaTrak glucose meter. All data were plotted as percent of glucose level at time 0. Endogenous insulin levels were measured using the Ultra Sensitive Mouse Insulin ELISA kit (Crystal Chem, Downers Groove, IL, USA)."}}, "note": "“And” between values parts separate entries of the source, which are not always exact repeats. Identical values can stand only once."}
{"smiles": "CON(C)C(=O)C1(OC(=O)c2ccco2)C(C)CC2C3CC(F)C4=Cc5c(cnn5-c5ccccc5)CC4(C)C3(F)C(O)CC21C", "note": "(stereo not drawn) [VSGC12]", "values": [{"measurement": "inhibition activity of pro-inflammatory cytokines (microarray, normalized to DEX)", "setting": "RAW264.7 cells", "result": "much stronger inhibition activity than DEX"}, {"measurement": "repression activity on pro-inflammatory cytokines by quantitative PCR", "setting": "RAW264.7 cells", "result": "much higher repression activity on IL-1β, IL-6 and IL-33 than FF and DEX"}, {"measurement": "atrophy of the spleen", "setting": "[1]; 0.0625 mg kg^-1 daily", "result": "only a mild change in spleen size"}, {"measurement": "atrophy of the spleen", "setting": "[1]; 0.25 mg kg^-1 daily", "result": "less severe atrophy"}, {"measurement": "% repression of total differentiated cells", "setting": "OVA-induced asthma; 0.0625 mg/kg", "result": 37, "unit": "%"}, {"measurement": "% repression of AHR", "setting": "OVA-induced asthma; 0.0625 mg/kg", "result": 50, "unit": "%"}, {"measurement": "% repression of total differentiated cells", "setting": "OVA-induced asthma; 0.125 mg/kg", "result": 60, "unit": "%"}, {"measurement": "histology score (hematoxylin and eosin and PAS staining)", "setting": "OVA-induced asthma; 0.25 mg kg^-1", "result": "much lower score than 0.25 mg kg^–1 FF in both hematoxylin and eosin and PAS staining"}, {"measurement": "% repression of total differentiated cells", "setting": "OVA-induced asthma; 0.25 mg/kg", "result": 88, "unit": "%"}, {"measurement": "% repression of AHR", "setting": "OVA-induced asthma; 0.25 mg/kg", "result": "> 95% and 95%"}, {"measurement": "infiltration of immune responsive cells into the lungs (total and differential cell count)", "setting": "OVA-induced asthma; 1 mg kg^-1 i.p.", "result": "strongly repressed the infiltration of immune responsive cells into the lungs"}, {"measurement": "repression of airway hyper-responsiveness (AHR)", "setting": "OVA-induced asthma; 1 mg kg^-1 i.p., Balb/c mice", "result": "robustly repressed AHR to the basal level"}, {"measurement": "histology score, PAS staining", "setting": "OVA-induced asthma; 1 mg kg^-1 i.p., grade 0-4", "result": 0.25}, {"measurement": "histology score, hematoxylin and eosin staining", "setting": "OVA-induced asthma; 1 mg kg^-1 i.p., grade 0-4", "result": "almost zero"}, {"measurement": "% repression of AHR", "setting": "OVA-induced asthma; 1 mg/kg, OVA+DMSO 0, saline 100", "result": 98, "unit": "%"}, {"measurement": "% repression of total differentiated cells", "setting": "OVA-induced asthma; 1 mg/kg, saline 100, OVA+DMSO 0", "result": 99, "unit": "%"}, {"measurement": "minimal dose to effectively repress AHR (minimal effective dose)", "setting": "OVA-induced asthma; AHR repression >50%, i.p.", "result": 0.0625, "unit": "mg kg^–1"}, {"measurement": "OVA-IgE levels", "setting": "OVA-induced asthma; lower doses (0.25, 0.125, 0.0625 mg kg^-1)", "result": "unexpectedly higher than the vehicle control"}, {"measurement": "bone strength (stiffness) of femurs", "setting": "[2]; 0.0625 mg kg^-1 daily", "result": "no longer caused damage to bone strength"}, {"measurement": "cortical bone thickness of femurs", "setting": "[2]; 0.0625 mg kg^-1 daily", "result": "did not cause a significant decrease compared with vehicle treatment"}, {"measurement": "bone strength (stiffness) of femurs", "setting": "[2]; 0.25 mg kg^-1 daily", "result": "no longer caused damage to bone strength"}, {"measurement": "cortical bone thickness of femurs", "setting": "[2]; 0.25 mg kg^-1 daily", "result": "only caused a mild decrease"}, {"measurement": "insulin resistance in insulin-tolerance test", "setting": "[3]; 0.0625 mg kg^-1 daily", "result": "no longer induced insulin resistance"}, {"measurement": "insulin resistance in insulin-tolerance test", "setting": "[3]; 0.25 mg kg^-1 daily", "result": "still caused insulin resistance, the resistance was much less severe than for FF"}]}
